Broadly, the Ki is a dissociation constant, usually derived from enzyme kinetics or from competition with a known ligand.

The structures appear in SMILES notation.

Experiment [1] concerns the target T1, Transmembrane protease serine 6 (Homo sapiens) (UniProt Q8IU80).
T1 sequence (whole entry): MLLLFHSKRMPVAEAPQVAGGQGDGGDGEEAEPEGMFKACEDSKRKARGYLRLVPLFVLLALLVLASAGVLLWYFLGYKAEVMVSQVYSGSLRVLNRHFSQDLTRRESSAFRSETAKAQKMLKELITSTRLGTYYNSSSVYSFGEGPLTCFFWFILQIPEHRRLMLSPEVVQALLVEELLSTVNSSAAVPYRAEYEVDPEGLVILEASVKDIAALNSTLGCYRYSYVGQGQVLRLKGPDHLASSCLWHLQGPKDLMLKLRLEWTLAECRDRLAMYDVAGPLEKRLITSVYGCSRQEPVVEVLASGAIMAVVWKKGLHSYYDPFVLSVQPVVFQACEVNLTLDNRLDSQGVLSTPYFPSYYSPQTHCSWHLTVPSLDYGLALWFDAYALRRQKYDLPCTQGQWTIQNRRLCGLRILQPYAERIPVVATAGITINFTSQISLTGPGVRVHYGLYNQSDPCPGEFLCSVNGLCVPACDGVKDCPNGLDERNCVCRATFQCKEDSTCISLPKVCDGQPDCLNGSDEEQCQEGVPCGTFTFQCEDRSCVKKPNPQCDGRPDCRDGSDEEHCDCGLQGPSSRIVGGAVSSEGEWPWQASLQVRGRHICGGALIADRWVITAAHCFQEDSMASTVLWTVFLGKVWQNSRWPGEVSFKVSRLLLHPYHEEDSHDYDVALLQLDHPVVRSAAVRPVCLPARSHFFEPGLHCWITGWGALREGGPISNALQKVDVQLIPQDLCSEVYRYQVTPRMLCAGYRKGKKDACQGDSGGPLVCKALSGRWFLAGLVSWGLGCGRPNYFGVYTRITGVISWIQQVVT
Briefly: Inhibition of human matriptase-2 transfected in HEK cells assessed as residual activity at 40 uM using Boc-Gln-Ala-Arg-AMC as substrate after 20 mins by fluorimetric analysis. The class given is cell-based. The conditions noted are these: HEK293.

Experiment [2] deals with T2, Suppressor of tumorigenicity 14 protein (Homo sapiens, UniProt Q9Y5Y6).
T2 sequence (Q9Y5Y6 whole entry): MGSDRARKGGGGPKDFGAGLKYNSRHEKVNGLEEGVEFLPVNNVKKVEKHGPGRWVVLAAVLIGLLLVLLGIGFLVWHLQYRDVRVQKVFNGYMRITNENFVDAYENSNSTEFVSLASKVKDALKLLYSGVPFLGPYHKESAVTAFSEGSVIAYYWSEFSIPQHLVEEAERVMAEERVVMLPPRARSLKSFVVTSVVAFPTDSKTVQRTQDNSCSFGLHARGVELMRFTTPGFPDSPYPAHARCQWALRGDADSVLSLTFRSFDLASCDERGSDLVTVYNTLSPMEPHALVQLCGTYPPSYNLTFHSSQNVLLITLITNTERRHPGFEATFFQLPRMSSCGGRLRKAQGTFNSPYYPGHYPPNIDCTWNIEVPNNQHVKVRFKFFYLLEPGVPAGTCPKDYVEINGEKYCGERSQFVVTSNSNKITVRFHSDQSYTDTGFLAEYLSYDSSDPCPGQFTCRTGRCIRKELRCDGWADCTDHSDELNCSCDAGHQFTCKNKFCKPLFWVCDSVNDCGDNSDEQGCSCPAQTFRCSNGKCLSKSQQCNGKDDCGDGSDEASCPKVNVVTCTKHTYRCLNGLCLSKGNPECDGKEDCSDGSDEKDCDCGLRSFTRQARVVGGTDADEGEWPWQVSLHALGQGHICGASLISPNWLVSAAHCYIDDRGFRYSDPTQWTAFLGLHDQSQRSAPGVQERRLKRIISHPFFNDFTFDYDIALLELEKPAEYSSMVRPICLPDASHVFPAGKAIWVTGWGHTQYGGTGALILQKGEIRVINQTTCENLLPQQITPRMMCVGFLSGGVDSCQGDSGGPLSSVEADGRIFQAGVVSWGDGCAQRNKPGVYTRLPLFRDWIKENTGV
Briefly: Inhibition of human matriptase using Boc-Gln-Ala-Arg-AMC as substrate after 20 mins by fluorimetric analysis.

Experiment [3] deals with T3, Transmembrane protease serine 6 (Homo sapiens, UniProt Q8IU80).
T3 sequence (Q8IU80 whole entry): T1 sequence (whole entry)
The experiment is described as follows: Inhibition of human matriptase-2 transfected in HEK cells using Boc-Gln-Ala-Arg-AMC as substrate after 20 mins by fluorimetric analysis. It is filed as cell-based, HEK293.

Experiment [4] addresses Prothrombin (Homo sapiens, UniProt P00734). Briefly: Inhibition of human thrombin using Cbz-Gly-Gly-Arg-AMC as substrate after 20 mins by fluorimetric analysis.
The target of experiment [5] is Coagulation factor X (Bos taurus, UniProt P00743). The experiment is described as follows: Inhibition of bovine factor 10a using Boc-Ile-Glu-Gly-Arg-AMC as substrate after 20 mins by fluorimetric analysis.
In experiment [6] the target is Trypsin (Homo sapiens, UniProt P07477+P07478+P35030). The experiment is described as follows: Inhibition of human trypsin using Boc-Gln-Ala-Arg-AMC as substrate after 20 mins by fluorimetric analysis. It is filed as protein assay.
Experiment [7] has as its target T1, Transmembrane protease serine 6 (Homo sapiens). The experiment is described as follows: Inhibition of human matriptase-2 transfected in HEK cells assessed as residual activity at 5 uM using Boc-Gln-Ala-Arg-AMC as substrate after 20 mins by fluorimetric analysis. The class given is cell-based. The note with it: HEK293.
Experiment [8] can be described thus: Inhibition of bovine trypsin after 15 to 30 mins. The arrangement: species or system Bos taurus.

Chain of Coagulation factor X (P00743 41-180 limits assumed): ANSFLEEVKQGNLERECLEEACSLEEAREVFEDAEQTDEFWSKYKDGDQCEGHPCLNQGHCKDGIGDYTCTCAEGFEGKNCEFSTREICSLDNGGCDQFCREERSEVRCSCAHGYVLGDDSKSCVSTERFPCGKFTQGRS
Chain of Coagulation factor X (P00743 234-492 limits assumed): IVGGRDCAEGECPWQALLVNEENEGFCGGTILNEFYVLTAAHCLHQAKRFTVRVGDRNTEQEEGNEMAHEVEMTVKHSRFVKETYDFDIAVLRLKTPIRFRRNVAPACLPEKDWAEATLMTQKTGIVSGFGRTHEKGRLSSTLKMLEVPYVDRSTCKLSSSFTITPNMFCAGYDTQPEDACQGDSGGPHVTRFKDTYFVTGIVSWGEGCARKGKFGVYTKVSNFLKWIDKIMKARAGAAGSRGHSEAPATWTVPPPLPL

Regarding `N=C(N)c1ccc(NCCCCCCCCNc2ccc(C(=N)N)cc2)cc1`, in experiment [1], the Activity is 8.6%. The Ki in experiment [2] is 526 nM; in experiment [3] it was 1.64 µM; in experiment [4], 317 nM; in experiment [5], 1.29 µM; in experiment [6], 0.192 µM.
Turning to `N=C(N)c1ccc(OCc2cccc(COc3ccc(C(=N)N)cc3)c2)cc1`, the Activity in experiment [1] was 17%.
On the same count and under the same terms, next, `N=C(N)c1ccc(NC(=O)CCCCCCC(=O)Nc2ccc(C(=N)N)cc2)cc1`: 62%; `N=C(N)c1ccc(NCCCNc2ccc(C(=N)N)cc2)cc1`: 55%.
Regarding `N=C(N)c1ccc(NCCCCCCNc2ccc(C(=N)N)cc2)cc1`, the Activity in experiment [1] worked out at 21%.
For the compound `N=C(N)c1ccc(NC(=O)c2ccc(C(=O)Nc3ccc(C(=N)N)cc3)cc2)cc1`, the Activity in experiment [1] was greater than 50%; in experiment [7], 93%.
As for `N=C(N)c1ccc(NC(=O)c2cccc(C(=O)Nc3ccc(C(=N)N)cc3)c2)cc1`, the Activity in experiment [1] was found to be 32%.
On the same count and under the same terms, next, `N=C(N)c1ccc(NC(=O)CCCCCCCC(=O)Nc2ccc(C(=N)N)cc2)cc1`: 49%; `N=C(N)c1ccc(NCCNc2ccc(C(=N)N)cc2)cc1`: 23%.
Same read-out and setting: next, `N=C(N)c1ccc(COc2ccccc2OCc2ccc(C(=N)N)cc2)cc1`: 46%; `N=C(N)c1ccc(NC(=O)CCCCC(=O)Nc2ccc(C(=N)N)cc2)cc1`: 57%.
Regarding `N=C(N)c1ccc(OCc2ccccc2COc2ccc(C(=N)N)cc2)cc1`, the Activity in experiment [1] was found to be 19%. For the same compound, the Ki is 2280 nM in experiment [2]; 5.2 µM in experiment [3]; 279 nM in experiment [4]; 13.7 µM in experiment [5]; 0.221 µM in experiment [6].
Consider `N=C(N)c1ccc(NC(=O)CCCCCCCCCCC(=O)Nc2ccc(C(=N)N)cc2)cc1`, for which the Activity in experiment [1] came to 49%.
On the same count and under the same terms, next, `CN(CCNc1ccc(C(=N)N)cc1)c1ccc(C(=N)N)cc1`: 21%; `CN(CCCN(C)c1ccc(C(=N)N)cc1)c1ccc(C(=N)N)cc1`: 23%.
In the case of `N=C(N)c1ccc(N2CCCN(c3ccc(C(=N)N)cc3)CC2)cc1`, the Activity in experiment [1] was 15%. Besides, the Ki in experiment [2] worked out at 397 nM; in experiment [3], 4.39 µM; in experiment [4], 5300 nM; in experiment [5] it was 7.83 µM; in experiment [6], 1.9 µM.
For the compound `N=C(N)c1ccc(NC(=O)CCCCC(=O)Nc2cccc(C(=N)N)c2)cc1`, the Activity in experiment [1] amounted to 78%.
Regarding `N=C(N)c1ccc(NC(=O)CCCCCC(=O)Nc2ccc(C(=N)N)cc2)cc1`, in experiment [1], the Activity is 63%.
As for `N=C(N)c1ccc(NCCCCCCCNc2ccc(C(=N)N)cc2)cc1`, in experiment [1], the Activity was determined as 16%. For the same compound, the Ki in experiment [2] is 558 nM; in experiment [3], 3.68 µM; in experiment [4], 499 nM; in experiment [5], 0.391 µM; in experiment [6], 0.244 µM.
Turning to `N=C(N)c1ccc(OCc2ccc(COc3ccc(C(=N)N)cc3)cc2)cc1`, the Activity in experiment [1] was 16%. Also, the Ki was 816 nM in experiment [2]; 5.7 µM in experiment [3]; 1160 nM in experiment [4]; 0.327 µM in experiment [5]; 0.316 µM in experiment [6]; 1300 nM in experiment [8].
For the compound `N=C(N)c1ccc(N2CCN(c3ccc(C(=N)N)cc3)CC2)cc1`, in experiment [1], the Activity was found to be 5.3%. For the same compound, the Ki in experiment [2] turned out to be 719 nM; in experiment [3], 1.16 µM; in experiment [4] it was 10100 nM; in experiment [5], 20 µM; in experiment [6], 0.513 µM.
For the compound `N=C(N)c1ccc(NCCCCNc2ccc(C(=N)N)cc2)cc1`, the Activity in experiment [1] worked out at 27%.
`N=C(N)c1ccc(NC(=O)CCCC(=O)Nc2ccc(C(=N)N)cc2)cc1`: the Activity in experiment [1] worked out at 68%.
Same read-out and setting: next, `N=C(NC1CC1)c1ccc(N2CCCN(c3ccc(C(=N)NC4CC4)cc3)CC2)cc1`: 45%.
Take `N=C(N)c1ccc(NC(=O)C(=O)Nc2ccc(C(=N)N)cc2)cc1`: in experiment [1], the Activity was determined as 17%. The Ki in experiment [2] came to 492 nM; in experiment [3] it was 6.23 µM; in experiment [4], 15800 nM; in experiment [5], 52.3 µM; in experiment [6], 1.42 µM.
As to `N=C(N)c1ccc(NC(=O)CCCCCCCCC(=O)Nc2ccc(C(=N)N)cc2)cc1`, the Activity in experiment [1] was 33%.
Same read-out and setting: next, `N=C(N)c1ccc(NC(=O)CCC(=O)Nc2ccc(C(=N)N)cc2)cc1`: 40%.

(Values after ChEMBL document CHEMBL3826881, “Evaluation of bisbenzamidines as inhibitors for matriptase-2” (Bioorg Med Chem Lett, 2016).)
